Like-named read-outs stand apart in the source and are kept apart here.
Target: T1, human LPA1 (Homo sapiens, UniProt Q92633)
T1 construct: expressed in transfected cells; host or cells: Chinese hamster ovary (CHO) cells
Experiment: LPA1 functional antagonist assay (LPA-induced calcium flux in CHO cells overexpressing human LPA1)
Format: cell-based
Conditions: read-out: hLPA1 IC50
Method in brief: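 Calcium flux was triggered by 10 nM LPA after 20 min room-temperature compound pre-incubation (final 0.08 nM to 5 μM, 0.5% DMSO) in human LPA1-overexpressing CHO cells carrying calcium dye. Buffer: HBSS with Ca/Mg, 20 mM HEPES, 0.1% fatty-acid-free BSA; IC50s from 4-parameter logistic fits.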

[1] = inhibition of calcium flux induced by 10 nM LPA, CHO cells overexpressing human LPA1

T1 sequence (Q92633 whole entry): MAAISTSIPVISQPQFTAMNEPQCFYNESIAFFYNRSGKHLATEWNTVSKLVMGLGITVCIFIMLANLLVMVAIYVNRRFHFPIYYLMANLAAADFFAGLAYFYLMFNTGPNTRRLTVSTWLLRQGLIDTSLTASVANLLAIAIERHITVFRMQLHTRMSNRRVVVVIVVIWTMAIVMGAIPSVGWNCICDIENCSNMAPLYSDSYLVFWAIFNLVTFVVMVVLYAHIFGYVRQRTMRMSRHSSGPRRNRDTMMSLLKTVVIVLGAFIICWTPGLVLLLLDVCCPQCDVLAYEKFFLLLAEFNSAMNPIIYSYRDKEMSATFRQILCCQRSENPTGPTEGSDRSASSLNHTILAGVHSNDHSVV

IC50 [1] [nM]	IC50 [nM]	Structure (SMILES)
301		Cc1nc(-c2nnn(C)c2Cn2nncc2C2CC2)ccc1O[C@H]1CCC[C@H](C(=O)O)C1 [Example 268, (1S,3S)-3-((6-(5-((5-cyclopropyl-1H-1,2,3-triazol-1-yl)methyl)-1-methyl-1H-1,2,3-triazol-4-yl)-2-methyl-pyridin-3-yl)oxy)cyclohexane-1-carboxylic acid]
33		Cc1nc(-c2nnn(C)c2CNc2noc(CC(C)C)n2)ccc1O[C@H]1CCC[C@H](C(=O)O)C1 [Example 71]
1320		CCOC1(c2nc(NCc3c(-c4ccc(O[C@H]5CCC[C@H](C(=O)O)C5)c(C)n4)nnn3C)no2)CC1 [Example 225, (1S,3S)-3-((6-(5-(((5-(1-ethoxy-cyclopropyl)-1,2,4-oxadiazol-3-yl)amino)methyl)-1-methyl-1H-1,2,3-triazol-4-yl)-2-methylpyridin-3-yl)oxy)cyclohexane-1-carboxylic acid]
60		Cc1nc(-c2nnn(C)c2CNc2nc(C(F)(F)F)ns2)ccc1O[C@H]1CCC[C@H](C(=O)O)C1 [Example 119]
316		Cc1nc(-c2nnn(C)c2CNc2nc(C3CC3)no2)ccc1O[C@H]1CCC[C@H](C(=O)O)C1 [Example 58]
39		Cc1nc(-c2nnn(C)c2CNc2cnn(C3CCCC3)n2)ccc1O[C@H]1CCC[C@H](C(=O)O)C1 [Example 28]
34		Cc1nc(-c2nnn(C)c2CNc2ncn(-c3ccccc3)n2)ccc1O[C@H]1CCC[C@H](C(=O)O)C1 [Example 38]
84		CCC(OC)c1nc(NCc2c(-c3ccc(O[C@H]4CCC[C@H](C(=O)O)C4)c(C)n3)nnn2C)no1 (mixture of isomers) [Example 217, (1S,3S)-3-((6-(5-(((5-(1-methoxy-propyl)-1,2,4-oxadiazol-3-yl)amino)methyl)-1-methyl-1H-1,2,3-triazol-4-yl)-2-methylpyridin-3-yl)oxy) cyclo-hexane-1-carboxylic acid]
34		CCCCc1nnn(Cc2c(-c3ccc(O[C@H]4CCC[C@H](C(=O)O)C4)c(C)n3)nnn2C)n1 [Example 111]
205		CCc1nc(-c2nnn(C)c2Cn2nnnc2CC2CC2)ccc1O[C@H]1CCC[C@H](C(=O)O)C1 [Example 306, (1S,3S)-3-{[6-(5-{[5-(cyclopropyl-methyl)-1H-1,2,3,4-tetrazol-1-yl]methyl}-1-methyl-1H-1,2,3-triazol-4-yl)-2-ethylpyridin-3-yl]oxy}cyclohexane-1-carboxylic acid]
204		Cc1nc(-c2nnn(C)c2CNc2nnc(C3CCCCC3)o2)ccc1O[C@H]1CCC[C@H](C(=O)O)C1 [Example 57]
385		Cc1nc(-c2nnn(C)c2Cn2nnnc2C2CCCC2)ccc1O[C@H]1CCC[C@H](C(=O)O)C1 [Example 330, (1S,3S)-3-((6-(5-((5-cyclopentyl-1H-tetrazol-1-yl)methyl)-1-methyl-1H-1,2,3-triazol-4-yl)-2-methylpyridin-3-yl)oxy)cyclo-hexane-1-carboxylic acid]
118		Cc1nc(-c2nnn(C)c2Cn2nnnc2CC(C)C)ccc1O[C@H]1CCC[C@H](C(=O)O)C1 [Example 328, (1S,3S)-3-((6-(5-((5-isobutyl-1H-tetrazol-1-yl)methyl)-1-methyl-1H-1,2,3-triazol-4-yl)-2-methylpyridin-3-yl)oxy)cyclohexane-1-carboxylic acid]
	1120	COCCCn1nnc(Cc2c(-c3ccc(O[C@H]4CCC[C@H](C(=O)O)C4)c(C)n3)nnn2C)n1 [Example 401, (1S,3S)-3-{[6-(5-{[2-(3-methoxy-propyl)-2H-1,2,3,4-tetrazol-5-yl]methyl}-1-methyl-1H-1,2,3-triazol-4-yl)-2-methylpyridin-3-yl]oxy}cyclohexane-1-carboxylic acid]
	513	COc1ccc(-n2nnc(NCc3c(-c4ccc(O[C@H]5CCC[C@H](C(=O)O)C5)c(C)n4)nnn3C)n2)cc1 [Example 383, (1S,3S)-3-((6-(5-(((2-(4-methoxy-phenyl)-2H-tetrazol-5-yl)amino)methyl)-1-methyl-1H-1,2,3-triazol-4-yl)-2-methylpyridin-3-yl)oxy)cyclohexane-1-carboxylic acid]
84		Cc1nc(-c2nnn(C)c2CNc2cc(C(C)C)no2)ccc1O[C@H]1CCC[C@H](C(=O)O)C1 [Example 168]
288		CC(C)Cc1nnn(Cc2c(-c3ccc(O[C@H]4CCC[C@H](C(=O)O)C4)cn3)nnn2C)n1 [Example 254, (1S,3S)-3-((6-(5-((5-isobutyl-2H-tetrazol-2-yl)methyl)-1-methyl-1H-1,2,3-triazol-4-yl)pyridin-3-yl)oxy)cyclohexane-1-carboxylic acid]
10		Cn1nnc(-c2ccc(O[C@H]3CCC[C@H](C(=O)O)C3)cn2)c1CNc1noc(CCC2CC2)n1 [Example 286, (1S,3S)-3-((6-(5-(((5-(2-cyclopropyl-ethyl)-1,2,4-oxadiazol-3-yl)amino)methyl)-1-methyl-1H-1,2,3-triazol-4-yl)pyridin-3-yl)oxy)cyclohexane-1-carboxylic acid]
	207	Cc1nc(-c2nnn(C)c2Cc2nnnn2CC(C)C)ccc1O[C@H]1CCC[C@H](C(=O)O)C1 [Example 374, (1S,3S)-3-((6-(5-((1-isobutyl-1H-tetrazol-5-yl)methyl)-1-methyl-1H-1,2,3-triazol-4-yl)-2-methylpyridin-3-yl)oxy)cyclohexane-1-carboxylic acid]

IC50 [1] [nM]	IC50 [nM]	Structure (SMILES)
	66	CCc1nc(-c2nnn(C)c2Cn2cc(CC(C)C)nn2)ccc1O[C@H]1CCC[C@H](C(=O)O)C1 [Example 370, (1S,3S)-3-((2-ethyl-6-(5-((4-isobutyl-1H-1,2,3-triazol-1-yl)methyl)-1-methyl-1H-1,2,3-triazol-4-yl)pyridin-3-yl)oxy)cyclohexane-1-carboxylic acid]
	229	CCCCN(CCCC)c1nnn(Cc2c(-c3ccc(O[C@H]4CCC[C@H](C(=O)O)C4)c(C)n3)nnn2C)n1 [Example 363, (1S,3S)-3-((6-(5-((5-(dibutylamino)-2H-tetrazol-2-yl)methyl)-1-methyl-1H-1,2,3-triazol-4-yl)-2-methyl-pyridin-3-yl)oxy)cyclohexane-1-carboxylic acid]
546		Cc1nc(-c2nnn(C)c2Cn2nnc(OC3CCCC3)n2)ccc1O[C@H]1CCC[C@@H](C(=O)O)C1 [Example 337, (1R,3S)-3-{[6-(5-{[5-(cyclopentyloxy)-2H-1,2,3,4-tetrazol-2-yl]methyl}-1-methyl-1H-1,2,3-triazol-4-yl)-2-methylpyridin-3-yl]oxy}cyclohexane-1-carboxylic acid]
18.1		Cc1nc(-c2nnn(C)c2CNc2noc(C3CC34CC4)n2)ccc1O[C@H]1CCC[C@H](C(=O)O)C1 (stereo partly shown) [Example 204]
43		Cc1nc(-c2nnn(C)c2CNc2nc(C3CCCC3)no2)ccc1O[C@H]1CCC[C@H](C(=O)O)C1 [Example 62]
7		Cc1nc(-c2nnn(C)c2Cn2nnc(CC3CCCC3)n2)ccc1O[C@H]1CCC[C@H](C(=O)O)C1 [Example 331, (1S,3S)-3-((6-(5-((5-(cyclopentyl-methyl)-2H-tetrazol-2-yl)methyl)-1-methyl-1H-1,2,3-triazol-4-yl)-2-methylpyridin-3-yl)oxy)cyclohexane-1-carboxylic acid]
15		Cc1nc(-c2nnn(C)c2Cn2cc(Cc3ccccc3)cn2)ccc1O[C@H]1CCC[C@H](C(=O)O)C1 [Example 80, (1 S,3 S)-3-((6-(5-((4-benzyl-1H-pyrazol-1-yl)methyl)-1-methyl-1H-1,2,3-triazol-4-yl)-2-methylpyridin-3-yl)oxy)cyclohexane-1-carboxylic acid]
112		Cc1nc(-c2nnn(C)c2CNc2noc([C@H]3C[C@@](C)(F)C3)n2)ccc1O[C@H]1CCC[C@H](C(=O)O)C1 [Example 191]
1290		Cc1nc(-c2nnn(C)c2CNc2cc(C3CC3)nn2C)ccc1O[C@H]1CCC[C@H](C(=O)O)C1 [Example 123]
96		Cc1nc(-c2nnn(C)c2CNc2nnc(Cc3ccccc3)o2)ccc1O[C@H]1CCC[C@H](C(=O)O)C1 [Example 50]
6		Cc1nc(-c2nnn(C)c2CNc2noc(CCC3CC3)n2)ccc1O[C@H]1CCC[C@H](C(=O)O)C1 [Example 165]
237		CC(C)Cc1nnnn1Cc1c(-c2ccc(O[C@H]3CCC[C@H](C(=O)O)C3)cn2)nnn1C [Example 255, (1S,3S)-3-((6-(5-((5-isobutyl-1H-tetrazol-1-yl)methyl)-1-methyl-1H-1,2,3-triazol-4-yl)pyridin-3-yl)oxy)cyclohexane-1-carboxylic acid]
44		Cn1nnc(-c2ccc(O[C@H]3CCC[C@H](C(=O)O)C3)cn2)c1Cn1nnc(CC2CC2)n1 [Example 250, (1 S,3 S)-3-((6-(5-((5-(cyclopropylmethyl)-2H-tetrazol-2-yl)methyl)-1-methyl-1H-1,2,3-triazol-4-yl)pyridin-3-yl)oxy)cyclohexane-1-carboxylic acid]
1490		Cc1nc(-c2nnn(C)c2CNc2ncn(C(C)C)n2)ccc1O[C@H]1CCC[C@H](C(=O)O)C1 [Example 126]
32		Cc1nc(-c2nnn(C)c2COc2ncn(CC(C)C)n2)ccc1O[C@H]1CCC[C@H](C(=O)O)C1 [Example 135, (1 S,3 S)-3-((6-(5-(((1-Isobutyl-1H-1,2,4-triazol-3-yl)oxy)methyl)-1-methyl-1H-1,2,3-triazol-4-yl)-2-methylpyridin-3-yl)oxy)cyclohexane-1-carboxylic acid]
42		CCCc1nc(NCc2c(-c3ccc(O[C@H]4CCC[C@H](C(=O)O)C4)c(C)n3)nnn2C)no1 [Example 68]
52		Cc1nc(-c2nnn(C)c2Cc2noc(CC(C)C)n2)ccc1O[C@H]1CCC[C@H](C(=O)O)C1 [Example 234, (1S,3S)-3-((6-(5-((5-isobutyl-1,2,4-oxadiazol-3-yl)methyl)-1-methyl-1H-1,2,3-triazol-4-yl)-2-methylpyridin-3-yl)oxy)cyclohexane-1-carboxylic acid]
130		Cc1nc(-c2nnn(C)c2CNc2nc(-c3ccccc3)cs2)ccc1O[C@H]1CCC[C@H](C(=O)O)C1 [Example 14]
